The results in this text go back to patent publication US8178506B2, “Oligomeric compounds and compositions for use in modulation of small non-coding RNAs” (Regulus Therapeutics Inc., priority 2003, dated 2012).

What all share (format): cell-based, human
The subject of data set [1] is HeLa cells. The experiment in a line: Cell cycle assay in HeLa cells. Conditions: HeLa cells.
Data set [2] deals with differentiated adipocytes. The experiment in a line: Hallmark genes and triglycerides in differentiated adipocytes. Particulars: Table 28; differentiated adipocytes transfected day nine post-differentiation; 250 nM oligonucleotide. An excerpt:
The effect of the oligomeric compounds of the present invention targeting miRNAs on the expression of markers of cellular differentiation was examined in differentiated adipocytes.
As previously described, the HSL, aP2, Glut4, and PPARγ genes play important rolls in the uptake of glucose and the metabolism and utilization of fats. Also as previously described, an increase in triglyceride content is another well-established marker for adipocyte differentiation. Human white preadipocytes (Zen-Bio Inc., Research Triangle Park, N.C.) were grown in preadipocyte media (ZenBio Inc.). After the cells reached confluence (approximately three days), they were exposed to differentiation media (Zen-Bio, Inc.) containing a PPAR-γ agonist, IBMX, dexamethasone, and insulin for three days. Cells were then fed Adipocyte Medium (Zen-Bio, Inc.), which was replaced at 2 to 3 day intervals. One day before transfection, 96-well plates were seeded with 3000 cells/well. Cells were then transfected on day nine post-differentiation, according to standard published procedures with 250 nM oligonucleotide in LIPOFECTIN™ (Invitrogen Corporation, Carlsbad, Calif.) (Monia et al., J. Biol. Chem. 1993 268(19):14514-22). Oligomeric compounds were tested in triplicate on each 96-well plate, and the effect of TNF-α, known to inhibit adipocyte differentiation, was also measured in triplicate. Oligomeric compound treatments and transfectant-only negative controls may be measured up to six times per plate. On day twelve post-differentiation, cells were washed and lysed at room temperature, and the expression of the four hallmark genes, HSL, aP2, Glut4, and PPARγ, as well as triglyceride (TG) accumulation were measured in adipocytes transfected with the uniform 2′-MOE phosphorothioate (PS) previously described in Example 13 as well as the chimeric gapmer oligomeric compounds targeting the mir-143 miRNA and the mir-143 pri-miRNA described in Example 16. On day twelve post-differentiation, cells were lysed in a guanadinium-containing buffer and total RNA was harvested. The amount of total RNA in each sample was determined using a Ribogreen Assay (Molecular Probes, Eugene, Oreg.). Real-time PCR was performed on the total RNA using primer/probe sets for the adipocyte differentiation hallmark genes Glut4, HSL, aP2, and PPARγ. Triglyceride levels as well as mRNA levels for each of the four adipocyte differentiation hallmark genes are expressed relative to control levels (control=treatment with ISIS-29848 (SEQ ID NO: 737)).

Data set [3] concerns preadipocytes. The experiment in a line: Caspase assay in preadipocytes. Conditions: untreated control set equal to 1.0. The text has this:
The effect of oligomeric compounds of the present invention targeting miRNAs was examined in preadipocytes (Zen-Bio, Inc., Research Triangle Park, N.C.) using the fluorometric caspase assay previously described in Example 11.

[4] abbreviates: 25 nM, 48 hours, percentage of cells in phase, average of replicates.
[5] abbreviates: 50 nM, 48 hours, percentage of cells in phase, average of replicates.
The mark [6] stands for this setting: 100 nM, 48 hours, percentage of cells in phase, average of replicates.
Setting [7] is: 150 nM oligomeric compound, 24 hours, relative to untreated control (UTC = 100).
Where [8] appears, read: 150 nM oligomeric compound, 48 hours after treatment, relative to untreated control (UTC=100).
The mark [9] stands for this setting: 150 nM, 48 hours, relative to untreated control.
The mark [10] stands for this setting: 150 nM, 48 hours, percentage of cells in phase, average of replicates.

Values joined by “and” are separate entries in the source; they are usually repeats but may differ in a detail not shown here. Equal entries are not always repeated. In the oligonucleotide strings, read from the 5' end, every base follows the letter of its sugar. An asterisk marks phosphorothioate; unmarked linkages are phosphodiester. Other units and linkages are bracketed, terminal groups are in braces. A string of capitals states the bases alone. e = 2'-O-(2-methoxyethyl) (MOE); [5mC] = 5-methylcytosine

For the substance “327905 (antisense e[5mC]*eA*eG*eA*e[5mC]*eT*e[5mC]*e[5mC]*eG*eG*eT*eG*eG*eA*eA*eT*eG*eA*eA*eG*eG*eA) [compound 327905]”, in data set [1] (25 nM, 48 hours), the “% cells in cell cycle phase: G2/M” value came to 18%. Also, in data set [1] (setting [4]), the “% cells in cell cycle phase: G1” value is 57%, the “% cells in cell cycle phase: S” value is 24%, the “% cells in cell cycle phase: aneuploid” value worked out at 12% and the “% cells in cell cycle phase: subG1” value is listed as 1.7%. Moreover, in data set [1] (50 nM, 48 hours), the “% cells in cell cycle phase: G2/M” value is recorded as 20%. For the same substance, in data set [1] (setting [5]), the “% cells in cell cycle phase: G1” value turned out to be 50%, the “% cells in cell cycle phase: S” value is on record as 30%, the “% cells in cell cycle phase: aneuploid” value worked out at 12% and the “% cells in cell cycle phase: subG1” value was 2.1%. Also, the “% cells in cell cycle phase: G2/M” value in data set [1] (100 nM, 48 hours) was 24%. For the same substance, in data set [1] (setting [6]), the “% cells in cell cycle phase: G1” value was 46%, the “% cells in cell cycle phase: S” value was 30%, the “% cells in cell cycle phase: aneuploid” value is on record as 14% and the “% cells in cell cycle phase: subG1” value is reported as 2.5%. Moreover, in data set [1] (setting [7]), the “% cells aneuploid” value is 50% and 98%; the “% cells in cell cycle phase G1” value was 99% and 94%; the “% cells in cell cycle phase G2/M” value is 129% and 121%; the “% cells in cell cycle phase S” value is 88% and 95%. The “% cells in cell cycle phase subG1” value in data set [1] (setting [7]) is 144% and 149%. In data set [1] (setting [8]), the “% cells in cell cycle phase: G1” value was 48% and 78%; the “% cells in cell cycle phase: G2/M” value is 150% and 122%; the “% cells in cell cycle phase: S” value was 194% and 143%; the “% cells in cell cycle phase: aneuploid” value was 67% and 99%. Besides, in data set [1] (150 nM, 48 hours), the “% cells in cell cycle phase: G2/M” value is on record as 24%. In data set [1] (setting [9]), the “% cells in cell cycle phase G1” value stood at 108%, the “% cells in cell cycle phase G2/M” value turned out to be 90%, the “% cells in cell cycle phase S” value was 99% and the “% cells in cell cycle phase aneuploid” value is reported as 164%. Further, the “% cells in cell cycle phase subG1” value in data set [1] (setting [9]) was 55%. Further, in data set [1] (setting [10]), the “% cells in cell cycle phase: G1” value turned out to be 38%, the “% cells in cell cycle phase: S” value was determined as 38%, the “% cells in cell cycle phase: aneuploid” value is recorded as 12% and the “% cells in cell cycle phase: subG1” value was 4.5%. In data set [2], the Glut4 was determined as 0.58, the HSL is on record as 0.65, the PPAR gamma is 1.31 and the TG came to 1.18. Also, the aP2 in data set [2] turned out to be 0.85. Also, the “Fold Increase over UTC (caspase activity)” value (shortened to “Fold Increase over UTC”) in data set [3] was determined as 1.5 fold over UTC.

With “327922 (antisense eT*e[5mC]*eA*eG*eT*eT*eT*eT*eG*e[5mC]*eA*eT*eG*eG*eA*eT*eT*eT*eG*e[5mC]*eA*e[5mC]*eA) [compound 327922]”, in data set [1] (setting [7]), the “% cells aneuploid” value stood at 104%, the “% cells in cell cycle phase G1” value was 97%, the “% cells in cell cycle phase G2/M” value amounted to 114% and the “% cells in cell cycle phase S” value is 96%. Further, the “% cells in cell cycle phase subG1” value in data set [1] (setting [7]) was 131%. Moreover, in data set [1] (setting [8]), the “% cells in cell cycle phase: G1” value was 96%, the “% cells in cell cycle phase: G2/M” value stood at 109%, the “% cells in cell cycle phase: S” value came out at 105% and the “% cells in cell cycle phase: aneuploid” value turned out to be 91%. Further, the “% cells in cell cycle phase: subG1” value in data set [1] (setting [8]) is 81%. In data set [2], the Glut4 is listed as 0.61, the HSL is reported as 1.01, the PPAR gamma came to 0.99 and the TG is on record as 1.48. Besides, the aP2 in data set [2] is 0.91. Further, the “Fold Increase over UTC” value in data set [3] amounted to 1.0 fold over UTC.

In the case of “327919 (antisense eG*eA*eA*eA*e[5mC]*e[5mC]*e[5mC]*eA*eG*e[5mC]*eA*eG*eA*e[5mC]*eA*eA*eT*eG*eT*eA*eG*e[5mC]*eT) [compound 327919]”, in data set [1] (setting [7]), the “% cells aneuploid” value turned out to be 96%, the “% cells in cell cycle phase G1” value amounted to 92%, the “% cells in cell cycle phase G2/M” value was found to be 109% and the “% cells in cell cycle phase S” value is recorded as 103%. In addition, the “% cells in cell cycle phase subG1” value in data set [1] (setting [7]) is recorded as 85%. Also, in data set [1] (setting [8]), the “% cells in cell cycle phase: G1” value is given as 80%, the “% cells in cell cycle phase: G2/M” value amounted to 139%, the “% cells in cell cycle phase: S” value is reported as 122% and the “% cells in cell cycle phase: aneuploid” value is reported as 104%. Moreover, in data set [1] (setting [8]), the “% cells in cell cycle phase: subG1” value worked out at 104%. In data set [2], this substance gave a Glut4 of 1.82, an HSL of 0.83, a PPAR gamma of 1.80 and a TG of 1.15. For the same substance, the aP2 in data set [2] turned out to be 1.20. In data set [3], the “Fold Increase over UTC” value is 1.3 fold over UTC.

For the substance “327889 (antisense eG*eT*eG*eG*eT*eA*eA*eT*e[5mC]*e[5mC]*e[5mC]*eT*eG*eG*e[5mC]*eA*eA*eT*eG*eT*eG*eA*eT) [compound 327889]”, in data set [1] (setting [7]), the “% cells aneuploid” value is listed as 82%, the “% cells in cell cycle phase G1” value was determined as 104%, the “% cells in cell cycle phase G2/M” value was 87% and the “% cells in cell cycle phase S” value was 102%. Moreover, in data set [1] (setting [7]), the “% cells in cell cycle phase subG1” value came out at 122%. Besides, in data set [1] (setting [8]), the “% cells in cell cycle phase: G1” value is 78%, the “% cells in cell cycle phase: G2/M” value was 130%, the “% cells in cell cycle phase: S” value is listed as 137% and the “% cells in cell cycle phase: aneuploid” value is on record as 101%. Also, the “% cells in cell cycle phase: subG1” value in data set [1] (setting [8]) turned out to be 133%. Also, in data set [2], the Glut4 came out at 0.99, the HSL came to 0.77, the PPAR gamma was found to be 1.63 and the TG is on record as 1.09. The substance also displayed an aP2 in data set [2] of 1.12. In addition, the “Fold Increase over UTC” value in data set [3] is listed as 1.1 fold over UTC.

“327901 (antisense eT*eG*eA*eG*e[5mC]*eT*eA*e[5mC]*eA*eG*eT*eG*e[5mC]*eT*eT*e[5mC]*eA*eT*e[5mC]*eT*e[5mC]*eA) [compound 327901]”: in data set [1] (setting [7]), the “% cells aneuploid” value was 90%, the “% cells in cell cycle phase G1” value is reported as 101%, the “% cells in cell cycle phase G2/M” value is on record as 110% and the “% cells in cell cycle phase S” value is 94%. In data set [1] (setting [7]), the “% cells in cell cycle phase subG1” value was found to be 108%. For the same substance, in data set [1] (setting [8]), the “% cells in cell cycle phase: G1” value is listed as 98%, the “% cells in cell cycle phase: G2/M” value worked out at 103%, the “% cells in cell cycle phase: S” value is on record as 104% and the “% cells in cell cycle phase: aneuploid” value is recorded as 104%. Further, the “% cells in cell cycle phase: subG1” value in data set [1] (setting [8]) is recorded as 93%. In data set [2], this substance showed a Glut4 of 2.20, an HSL of 1.47, a PPAR gamma of 1.34 and a TG of 1.12. Besides, the aP2 in data set [2] is on record as 1.28. Moreover, in data set [3], the “Fold Increase over UTC” value is 2.0 fold over UTC.

Consider “327890 (antisense eA*eG*e[5mC]*eA*e[5mC]*eA*eA*eA*e[5mC]*eT*eA*e[5mC]*eT*eA*e[5mC]*e[5mC]*eT*e[5mC]*eA) [compound 327890]”, for which, in data set [2], the Glut4 is recorded as 0.37, the HSL came out at 0.42, the PPAR gamma worked out at 1.05 and the TG was 1.13. For the same substance, the aP2 in data set [2] amounted to 0.35. In addition, in data set [3], the “Fold Increase over UTC” value worked out at 1.3 fold over UTC.

As to “327941 (antisense eA*eA*e[5mC]*e[5mC]*e[5mC]*eA*e[5mC]*e[5mC]*eG*eA*e[5mC]*eA*eG*e[5mC]*eA*eA*eT*eG*eA*eA*eT*eG*eT*eT) [compound 327941]”, in data set [2], the Glut4 worked out at 0.90, the HSL is 1.17, the PPAR gamma stood at 1.66 and the TG was 1.33. This substance also gave an aP2 in data set [2] of 0.90. Also, the “Fold Increase over UTC” value in data set [3] was 1.3 fold over UTC.
